How the values were obtained:
[1] = rat, in vivo
Method: Mature female Sprague-Dawley rats were used for the experiment. 1 mg of the microparticulate danazol was delivered in a volume of 50 μl to the vaginal vault and the animals sacrificed at the times noted below. The uterus and ovaries were separately homogenized and blood was drawn. All tissues and biological samples were processed. Danazol was extracted and assayed by HPLC methodology.
Danazol was extracted from serum and tissue hexane/chloroform 80/20. For tissues, 1 ml aliquote of each homogenate was taken. The extracted danazol was reconstituted in a water/acetonitrile mobile phase and a Beckman Ultrasphere 5 micron, 4.6 mm×15 cm reverse phase column (C-18 RP) was used for all the HPLC analyses. A danazol recovery study was conducted using danazol drug product. The recovery was determined by comparing the extracted signal with unextracted signal.

[2] = high doses, up to 800 mg daily; cited from earlier work

In the case of `C#C[C@]1(O)CC[C@H]2[C@@H]3CCC4=Cc5oncc5C[C@]4(C)[C@H]3CC[C@@]21C` [Danazole, Danazol], the “Serum drug levels (in words)” value [1] is listed as “almost undetectable” and the Adverse side effects [2] is listed as “adverse side effects are seen”.
